According to patent US20100160369A1, “S1P1 Agonists and Methods of Making And Using” (EXELIXIS, INC., priority 2008, published 2010):

target: S1P1 (Homo sapiens, UniProt P21453); assay: CNG cAMP Assay (Assay 1); assay type: cell-based; set-up: host or cells: HEK293 cells expressing the CNG channel; conditions: footnote 1: Relative EC50 was measured, read-out: Assay 1 Relative EC50
Procedure: Frozen HEK293 cells expressing the CNG channel and S1P1 (BD Biosciences, San Jose, Calif.) were thawed and plated into the wells of a black, clear bottom, 384-well CellBind plate (Corning, Corning, N.Y.) at 14,000 cells per well. HEK293 cells expressing the CNG channel and CB1 (BD Biosciences) were cultured and plated under the same conditions. The cells were incubated for 16 h at 37° C. in complete DMEM medium (Invitrogen Carlsbad, Calif.) containing 10% FBS (HyClone Logan, Utah), 250 μg/mL geneticin (Invitrogen), and 1 μg/mL puromycin (Sigma-Aldrich, St. Louis, Mo.). A membrane potential dye (BD Biosciences) was added and the plates were incubated for 2-2.5 h at room temperature.
Test compounds were tested at maximum concentrations of 10 μM. Compounds were diluted in DMSO (10 concentration points, 3-fold each) and added to the assay plate at final DMSO concentrations of 1.8%. For each compound, there were duplicate assay plates and each assay plate had duplicate wells per concentration point. Test compounds were added to the cells in a DPBS solution containing 25 μM Ro 20-1724 (Sigma-Aldrich), 500 nM of the A2b receptor agonist NECA (Sigma-Aldrich) and 10 nM (EC95) of S1P (Avanti Alabaster, Ala.) and incubated for 90 min. The assay plate was read before compound addition (T0) and after the 90 min incubation (T90) using an EnVision plate reader (PerkinElmer, Waltham, Mass.) at an excitation wavelength of 350 nm and an emission wavelength of 590 nm. The T90/T0 ratio was determined for each concentration of the test compounds. The percent agonist activity was determined as [(test compound−DMSO alone control)/(NECA alone control−DMSO alone control)*100]. The percent activities were plotted against compound concentration to determine EC50 using XLFit (IDBS, Alameda, Calif.). The control used for calculating rEC50 in the S1P1 CNG agonist assay was DMSO.
Assay 1 is the CNG cAMP Assay as described in Biological Example 1. Assay 2a and 2b are the Tango™ β-arrestin Recruitment Assay in HEK293 and U2OS cells, respectively, as described in Biological Example 2. Assay 3a is the hS1P1R GTPγS Binding Assay as described in Biological Example 3. Assay 3b is the GTP-Eu Binding Assay as described in Biological Example 3. EC50's were measured unless otherwise noted. […] In the table, “nt” means the Compound was not tested and “no” means the compound was tested but had no measurable activity under the assay conditions employed.

Chain of S1P1 (P21453 whole entry): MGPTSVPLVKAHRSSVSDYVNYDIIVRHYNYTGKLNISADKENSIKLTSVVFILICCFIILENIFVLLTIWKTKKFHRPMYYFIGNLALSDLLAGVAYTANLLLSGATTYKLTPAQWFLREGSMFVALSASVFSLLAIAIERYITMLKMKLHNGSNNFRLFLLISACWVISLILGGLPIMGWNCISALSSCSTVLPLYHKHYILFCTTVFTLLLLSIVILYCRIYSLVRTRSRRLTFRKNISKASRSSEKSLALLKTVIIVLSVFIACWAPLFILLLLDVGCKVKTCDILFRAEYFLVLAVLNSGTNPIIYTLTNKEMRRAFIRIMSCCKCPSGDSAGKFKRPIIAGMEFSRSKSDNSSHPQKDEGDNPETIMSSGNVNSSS

Structure (SMILES) | EC50 [nM]
O=C(O)Cc1ccc(-c2noc(-c3cn4cc(C(F)(F)F)cc(Cl)c4n3)n2)c(Cl)c1 [Example 133, (3-chloro-4-{5-[8-chloro-6-(trifluoromethyl)imidazo[1,2-a]pyridin-2-yl]-1,2,4-oxadiazol-3-yl}phenyl)acetic acid] | 1000 to 5000
CCNC(CC(=O)O)c1ccc(-c2noc(-c3cn4cc(C(F)(F)F)cc(Cl)c4n3)n2)c(Cl)c1 (centres unmarked) [Example 137, 3-(3-chloro-4-{5-[8-chloro-6-(trifluoromethyl)imidazo[1,2-a]pyridin-2-yl]-1,2,4-oxadiazol-3-yl}phenyl)-3-(ethylamino)propanoic acid] | 1000 to 5000

same assay, conditions: read-out: Assay 1 EC50

Structure (SMILES) | EC50 [nM]
CS(=O)(=O)Nc1ccc(-c2noc(-c3cn4cc(C(F)(F)F)cc(Cl)c4n3)n2)cc1 [Example 117, N-(4-{5-[8-chloro-6-(trifluoromethyl)imidazo[1,2-a]pyridin-2-yl]-1,2,4-oxadiazol-3-yl}phenyl)methanesulfonamide] | ≤ 100
Cc1cc(-c2noc(-c3cn4cc(C(F)(F)F)cc(Cl)c4n3)n2)ccc1NS(C)(=O)=O [Example 119, N-(4-{5-[8-chloro-6-(trifluoromethyl)imidazo[1,2-a]pyridin-2-yl]-1,2,4-oxadiazol-3-yl}-2-methylphenyl)methanesulfonamide] | ≤ 100
O=C(O)CNCc1ccc(-c2noc(-c3cn4cc(C(F)(F)F)cc(Cl)c4n3)n2)c(Cl)c1 [Example 120, N-[(3-chloro-4-{5-[8-chloro-6-(trifluoromethyl)imidazo[1,2-a]pyridin-2-yl]-1,2,4-oxadiazol-3-yl}phenyl)methyl]glycine] | 500 to 1000
O=C(O)C1CN(Cc2cccc(-c3noc(-c4cn5cc(C(F)(F)F)cc(Cl)c5n4)n3)c2)C1 [Example 121, 1-[(3-{5-[8-chloro-6-(trifluoromethyl)imidazo[1,2-a]pyridin-2-yl]-1,2,4-oxadiazol-3-yl}phenyl)methyl]azetidine-3-carboxylic acid] | 500 to 1000
CS(=O)(=O)Nc1ccc(-c2noc(-c3cn4cc(C(F)(F)F)cc(Cl)c4n3)n2)cc1Cl [Example 122, N-(2-chloro-4-{5-[8-chloro-6-(trifluoromethyl)imidazo[1,2-a]pyridin-2-yl]-1,2,4-oxadiazol-3-yl}phenyl)methanesulfonamide] | ≤ 100
O=C(O)CCNCc1ccc(-c2noc(-c3cn4cc(C(F)(F)F)cc(Cl)c4n3)n2)cc1 [Example 123, N-[(4-{5-[8-chloro-6-(trifluoromethyl)imidazo[1,2-a]pyridin-2-yl]-1,2,4-oxadiazol-3-yl}phenyl)methyl]-beta-alanine] | 100 to 500
CC(C)(O)c1ccc(-c2noc(-c3cn4cc(C(F)(F)F)cc(Cl)c4n3)n2)c(Cl)c1 [Example 126, 2-(3-chloro-4-{5-[8-chloro-6-(trifluoromethyl)imidazo[1,2-a]pyridin-2-yl]-1,2,4-oxadiazol-3-yl}phenyl)propan-2-ol] | 100 to 500
O=C(O)C1CN(Cc2ccc(-c3noc(-c4cn5cc(C(F)(F)F)cc(Cl)c5n4)n3)cc2Cl)C1 [Example 127, 1-[(2-chloro-4-{5-[8-chloro-6-(trifluoromethyl)imidazo[1,2-a]pyridin-2-yl]-1,2,4-oxadiazol-3-yl}phenyl)methyl]azetidine-3-carboxylic acid] | 100 to 500
C=CS(=O)(=O)Nc1ccc(-c2noc(-c3cn4cc(C(F)(F)F)cc(Cl)c4n3)n2)c(Cl)c1 [Example 128, N-(3-chloro-4-{5-[8-chloro-6-(trifluoromethyl)imidazo[1,2-a]pyridin-2-yl]-1,2,4-oxadiazol-3-yl}phenyl)ethenesulfonamide] | 100 to 500
CS(=O)(=O)Nc1ccc(-c2noc(-c3cn4cc(C(F)(F)F)cc(Cl)c4n3)n2)c(F)c1 [Example 129, N-(4-{5-[8-chloro-6-(trifluoromethyl)imidazo[1,2-a]pyridin-2-yl]-1,2,4-oxadiazol-3-yl}-3-fluorophenyl)methanesulfonamide] | 100 to 500
O=c1nc(-c2ccc(-c3noc(-c4cn5cc(C(F)(F)F)cc(Cl)c5n4)n3)c(Cl)c2)[nH]o1 [Example 134, 3-(3-chloro-4-{5-[8-chloro-6-(trifluoromethyl)imidazo[1,2-a]pyridin-2-yl]-1,2,4-oxadiazol-3-yl}phenyl)-1,2,4-oxadiazol-5(2H)-one] | 500 to 1000
NC(=O)C(CC(=O)O)c1ccc(-c2noc(-c3cn4cc(C(F)(F)F)cc(Cl)c4n3)n2)c(Cl)c1 (centres unmarked) [Example 135, 4-amino-3-(3-chloro-4-{5-[8-chloro-6-(trifluoromethyl)imidazo[1,2-a]pyridin-2-yl]-1,2,4-oxadiazol-3-yl}phenyl)-4-oxobutanoic acid] | 100 to 500
CS(=O)(=O)CCc1ccc(-c2noc(-c3cn4cc(C(F)(F)F)cc(Cl)c4n3)n2)c(Cl)c1 [Example 140, 8-chloro-2-(3-{2-chloro-4-[2-(methylsulfonyl)ethyl]phenyl}-1,2,4-oxadiazol-5-yl)-6-(trifluoromethyl)imidazo[1,2-a]pyridine] | ≤ 100
FC(F)(F)c1cccc(-c2noc(-c3cn4cc(C(F)(F)F)cc(Cl)c4n3)n2)c1 [Example 143, 8-chloro-6-(trifluoromethyl)-2-{3-[3-(trifluoromethyl)phenyl]-1,2,4-oxadiazol-5-yl}imidazo[1,2-a]pyridine] | 500 to 1000
OCCN1CCC(Oc2cc(Cl)c(-c3noc(-c4cn5cc(C(F)(F)F)cc(Cl)c5n4)n3)cc2F)C1 (centres unmarked) [Example 144, 2-{3-[(5-chloro-4-{5-[8-chloro-6-(trifluoromethyl)imidazo[1,2-a]pyridin-2-yl]-1,2,4-oxadiazol-3-yl}-2-fluorophenyl)oxy]pyrrolidin-1-yl}ethanol] | 100 to 500
Fc1ccc(-c2noc(-c3cn4cc(C(F)(F)F)cc(Cl)c4n3)n2)c(F)c1 [Example 146, 8-chloro-2-[3-(2,4-difluorophenyl)-1,2,4-oxadiazol-5-yl]-6-(trifluoromethyl)imidazo[1,2-a]pyridine] | 500 to 1000
Fc1cccc(Cl)c1-c1noc(-c2cn3cc(C(F)(F)F)cc(Br)c3n2)n1 [Example 147, 8-bromo-2-[3-(2-chloro-6-fluorophenyl)-1,2,4-oxadiazol-5-yl]-6-(trifluoromethyl)imidazo[1,2-a]pyridine] | 100 to 500
CS(=O)(=O)c1cc(Cl)c2nc(-c3nc(-c4cc(F)c(CCC(=O)O)cc4Cl)no3)cn2c1 [Example 148, 3-(5-chloro-4-{5-[8-chloro-6-(methylsulfonyl)imidazo[1,2-a]pyridin-2-yl]-1,2,4-oxadiazol-3-yl}-2-fluorophenyl)propanoic acid] | ≤ 100
FC(F)(F)c1cc(Cl)c2nc(-c3nc(-c4ccc5[nH]ccc5c4)no3)cn2c1 [Example 151, 8-chloro-2-[3-(1H-indol-5-yl)-1,2,4-oxadiazol-5-yl]-6-(trifluoromethyl)imidazo[1,2-a]pyridine] | 100 to 500

same assay, conditions: relative EC50 was measured (footnote 1), read-out: Assay 1 Relative EC50

Structure (SMILES) | EC50 [nM]
CS(=O)(=O)Nc1ccc(-c2noc(-c3cn4cc(C#N)cc(Br)c4n3)n2)c(Cl)c1 [Example 114, N-{4-[5-(8-bromo-6-cyanoimidazo[1,2-a]pyridin-2-yl)-1,2,4-oxadiazol-3-yl]-3-chlorophenyl}methanesulfonamide] | 1000 to 5000
Cc1cc(Br)c2nc(-c3nc(-c4ccc(NS(C)(=O)=O)cc4Cl)no3)cn2c1 [Example 125, N-{4-[5-(8-bromo-6-methylimidazo[1,2-a]pyridin-2-yl)-1,2,4-oxadiazol-3-yl]-3-chlorophenyl}methanesulfonamide] | 1000 to 5000
